In paper PMC5812785 (Nature chemical biology, 2018):

Assays:
TIR1 = TIR1 (Arabidopsis thaliana, UniProt Q38825+Q570C0); format: binding
ccvTIR1 (TIR1^F79G) = ccvTIR1 (TIR1^F79G) (Arabidopsis thaliana, UniProt Q38825+Q570C0, Q570C0:F79G); format: binding
Sequence of ccvTIR1 (TIR1^F79G) (Q570C0 whole entry F79G, other chains not shown): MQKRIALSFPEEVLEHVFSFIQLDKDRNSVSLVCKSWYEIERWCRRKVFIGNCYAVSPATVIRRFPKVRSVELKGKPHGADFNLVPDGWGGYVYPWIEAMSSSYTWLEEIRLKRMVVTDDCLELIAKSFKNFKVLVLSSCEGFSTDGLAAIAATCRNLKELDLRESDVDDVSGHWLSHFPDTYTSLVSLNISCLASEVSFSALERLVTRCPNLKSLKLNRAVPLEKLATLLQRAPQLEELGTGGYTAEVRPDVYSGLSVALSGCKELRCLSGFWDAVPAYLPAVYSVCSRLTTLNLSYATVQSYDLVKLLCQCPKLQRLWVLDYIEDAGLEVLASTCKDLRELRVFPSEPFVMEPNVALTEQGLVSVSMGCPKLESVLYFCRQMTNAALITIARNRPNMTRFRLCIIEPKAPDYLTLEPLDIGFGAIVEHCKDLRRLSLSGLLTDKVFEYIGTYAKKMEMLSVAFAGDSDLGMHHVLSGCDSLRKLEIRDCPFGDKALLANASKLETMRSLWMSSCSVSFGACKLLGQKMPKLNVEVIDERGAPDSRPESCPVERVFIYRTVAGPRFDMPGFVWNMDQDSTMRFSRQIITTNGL

Sequence of TIR1 (Q570C0 whole entry, other chains not shown): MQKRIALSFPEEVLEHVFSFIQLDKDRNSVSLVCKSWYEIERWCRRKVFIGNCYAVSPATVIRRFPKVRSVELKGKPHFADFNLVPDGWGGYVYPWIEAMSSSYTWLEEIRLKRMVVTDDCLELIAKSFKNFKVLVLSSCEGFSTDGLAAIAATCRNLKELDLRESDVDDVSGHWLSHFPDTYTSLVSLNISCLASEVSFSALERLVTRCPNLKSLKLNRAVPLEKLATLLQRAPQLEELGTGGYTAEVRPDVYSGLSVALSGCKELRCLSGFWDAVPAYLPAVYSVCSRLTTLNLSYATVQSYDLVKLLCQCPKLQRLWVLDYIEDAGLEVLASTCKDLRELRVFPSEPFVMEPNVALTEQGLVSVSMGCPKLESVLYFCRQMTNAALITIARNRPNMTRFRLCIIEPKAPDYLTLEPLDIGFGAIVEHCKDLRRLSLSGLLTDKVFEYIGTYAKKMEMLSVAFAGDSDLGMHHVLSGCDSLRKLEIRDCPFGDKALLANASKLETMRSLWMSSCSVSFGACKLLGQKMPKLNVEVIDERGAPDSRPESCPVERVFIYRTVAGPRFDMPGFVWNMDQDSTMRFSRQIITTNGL

SMILES	EC50 (TIR1)	EC50 (ccvTIR1 (TIR1^F79G))
O=C(O)Cc1c[nH]c2ccccc12 [IAA, indole-3-acetic acid]	11.5 ± 1.23 µM	–
COc1cccc(-c2ccc3[nH]cc(CC(=O)O)c3c2)c1 [compound 1, 5-(3-methoxyphenyl)indole-3-acetic acid]	–	3.98 ± 0.6 µM
